Laboratory results from article PMC5218480 (PLoS ONE, 2017).

Tested on: MV-4-11 cells
Test: Gene expression microarray analysis (Affymetrix PrimeView) and GSEA
Format: cell-based, human
Parameters: RFU PODN (11730768_x_at) / Fold change /veh PODN (11730768_x_at) / RFU LINC00158 (11744669_a_at) / Fold change /veh LINC00158 (11744669_a_at) / RFU DUSP10 (11751237_a_at) / Fold change /veh DUSP10 (11751237_a_at) / RFU ID3 (11757404_x_at) / Fold change /veh ID3 (11757404_x_at) / RFU PLEKHG5 (11737974_s_at) / Fold change /veh PLEKHG5 (11737974_s_at) / RFU LRRC4B (11730491_at) / Fold change /veh LRRC4B (11730491_at) / RFU GIMAP4 (11747438_a_at) / Fold change /veh GIMAP4 (11747438_a_at) / RFU KRT8 (11758183_x_at) / Fold change /veh KRT8 (11758183_x_at) / RFU CNN1 (11734310_a_at) / Fold change /veh CNN1 (11734310_a_at) / RFU VPS37D (11726825_at) / Fold change /veh VPS37D (11726825_at) / RFU C10orf10 (11716522_x_at) / Fold change /veh C10orf10 (11716522_x_at) / RFU KIR2DL2 /// KIR2DL4 /// KIR2DL5A /// KIR2DL5B /// KIR2DS1 /// KIR2DS2 /// KIR2DS3 /// KIR2DS4 /// KIR3DL3 /// KIR3DL3 /// KIR3DS1 (11738374_at) / Fold change /veh KIR2DL2 /// KIR2DL4 /// KIR2DL5A /// KIR2DL5B /// KIR2DS1 /// KIR2DS2 /// KIR2DS3 /// KIR2DS4 /// KIR3DL3 /// KIR3DL3 /// KIR3DS1 (11738374_at) / RFU C1QL1 (11718748_at) / Fold change /veh C1QL1 (11718748_at) / RFU TMPRSS4 (11747572_a_at) / Fold change /veh TMPRSS4 (11747572_a_at) / RFU HAMP (11756126_x_at) / Fold change /veh HAMP (11756126_x_at) / RFU RNFT2 (11725882_a_at) / Fold change /veh RNFT2 (11725882_a_at) / RFU NR4A2 (11747474_a_at) / Fold change /veh NR4A2 (11747474_a_at) / RFU ABCC12 (11746883_a_at) / Fold change /veh ABCC12 (11746883_a_at) / RFU TMEM136 (11760407_x_at) / Fold change /veh TMEM136 (11760407_x_at) / RFU CLDN22 /// WWC2 (11732394_at) / Fold change /veh CLDN22 /// WWC2 (11732394_at) / RFU HLA-DPB1 (11760878_x_at) / Fold change /veh HLA-DPB1 (11760878_x_at) / RFU SPINT1 (11716480_a_at) / Fold change /veh SPINT1 (11716480_a_at) / RFU GAP43 (11754022_s_at) / Fold change /veh GAP43 (11754022_s_at) / RFU A4GNT (11735810_at) / Fold change /veh A4GNT (11735810_at) / RFU PRB3 (11715151_x_at) / Fold change /veh PRB3 (11715151_x_at) / RFU TUBB4B (11761932_at) / Fold change /veh TUBB4B (11761932_at) / RFU CAPN14 (11732068_a_at) / Fold change /veh CAPN14 (11732068_a_at) / RFU TMCC2 (11721928_a_at) / Fold change /veh TMCC2 (11721928_a_at) / RFU IRGQ (11745062_a_at) / Fold change /veh IRGQ (11745062_a_at) / RFU FAM174B (11720279_a_at) / Fold change /veh FAM174B (11720279_a_at) / RFU TMPRSS4 (11748680_a_at) / Fold change /veh TMPRSS4 (11748680_a_at) / RFU FAM212B (11763350_a_at) / Fold change /veh FAM212B (11763350_a_at) / RFU PLEKHG5 (11743358_a_at) / Fold change /veh PLEKHG5 (11743358_a_at) / RFU ZSCAN30 (11745921_a_at) / Fold change /veh ZSCAN30 (11745921_a_at) / RFU CMKLR1 (11741424_a_at) / Fold change /veh CMKLR1 (11741424_a_at) / RFU LOC101060620 /// MAPK8IP1 (11723275_at) / Fold change /veh LOC101060620 /// MAPK8IP1 (11723275_at) / RFU SPTSSB (11747773_x_at) / Fold change /veh SPTSSB (11747773_x_at) / RFU PRSS12 (11739890_at) / Fold change /veh PRSS12 (11739890_at) / RFU BIN1 (11741810_x_at) / Fold change /veh BIN1 (11741810_x_at) / RFU WNT11 (11732464_a_at) / Fold change /veh WNT11 (11732464_a_at) / RFU C10orf10 (11716521_a_at) / Fold change /veh C10orf10 (11716521_a_at) / RFU C5orf56 (11738089_at) / Fold change /veh C5orf56 (11738089_at) / RFU CYB561 (11721691_x_at) / Fold change /veh CYB561 (11721691_x_at) / RFU ANKRD19P (11752326_a_at) / Fold change /veh ANKRD19P (11752326_a_at) / RFU OR2T12 /// OR2T33 /// OR2T8 (11738714_s_at) / Fold change /veh OR2T12 /// OR2T33 /// OR2T8 (11738714_s_at) / RFU VCAN (11748164_a_at) / Fold change /veh VCAN (11748164_a_at) / RFU JSRP1 (11732532_at) / Fold change /veh JSRP1 (11732532_at) / RFU KRTAP10-11 (11738290_x_at) / Fold change /veh KRTAP10-11 (11738290_x_at) / RFU MYO3A (11730013_a_at) / Fold change /veh MYO3A (11730013_a_at) / RFU EBF3 (11725865_a_at) / Fold change /veh EBF3 (11725865_a_at) / RFU CAMK2N1 (11719241_x_at) / Fold change /veh CAMK2N1 (11719241_x_at) / RFU C5orf56 (11738088_a_at) / Fold change /veh C5orf56 (11738088_a_at) / RFU OLFML3 (11715873_a_at) / Fold change /veh OLFML3 (11715873_a_at) / RFU LOC100653217 /// NTM (11731650_a_at) / Fold change /veh LOC100653217 /// NTM (11731650_a_at) / RFU MAPK11 (11762145_a_at) / Fold change /veh MAPK11 (11762145_a_at) / RFU FIZ1 (11724087_x_at) / Fold change /veh FIZ1 (11724087_x_at) / RFU OASL (11726364_x_at) / Fold change /veh OASL (11726364_x_at) / RFU SOX15 (11748057_x_at) / Fold change /veh SOX15 (11748057_x_at) / RFU CD79A (11719716_a_at) / Fold change /veh CD79A (11719716_a_at) / RFU HIST1H1D (11736915_at) / Fold change /veh HIST1H1D (11736915_at) / RFU CASKIN2 (11723855_a_at) / Fold change /veh CASKIN2 (11723855_a_at) / RFU LOC730098 (11760151_x_at) / Fold change /veh LOC730098 (11760151_x_at) / RFU OR4N2 (11742367_at) / Fold change /veh OR4N2 (11742367_at) / RFU PRRT2 (11749266_a_at) / Fold change /veh PRRT2 (11749266_a_at) / RFU SNX32 (11753110_a_at) / Fold change /veh SNX32 (11753110_a_at) / RFU CDHR5 (11726645_a_at) / Fold change /veh CDHR5 (11726645_a_at) / RFU RCAN1 (11760418_a_at) / Fold change /veh RCAN1 (11760418_a_at) / RFU FAM167A (11723789_a_at) / Fold change /veh FAM167A (11723789_a_at) / RFU FAM26E (11764081_at) / Fold change /veh FAM26E (11764081_at) / RFU ISYNA1 (11749810_s_at) / Fold change /veh ISYNA1 (11749810_s_at) / RFU ACY1 (11761880_at) / Fold change /veh ACY1 (11761880_at) / RFU 11764098_at / Fold change /veh 11764098_at / RFU SAMD14 (11745864_x_at) / Fold change /veh SAMD14 (11745864_x_at) / RFU NPB (11741838_a_at) / Fold change /veh NPB (11741838_a_at) / RFU TMPRSS6 (11731388_a_at) / Fold change /veh TMPRSS6 (11731388_a_at) / RFU KRTAP10-2 (11738614_at) / Fold change /veh KRTAP10-2 (11738614_at) / RFU ARHGAP8 /// PRR5-ARHGAP8 (11727945_x_at) / Fold change /veh ARHGAP8 /// PRR5-ARHGAP8 (11727945_x_at) / RFU KRTAP5-7 /// NADSYN1 (11734609_at) / Fold change /veh KRTAP5-7 /// NADSYN1 (11734609_at) / RFU RASL12 (11751679_a_at) / Fold change /veh RASL12 (11751679_a_at) / RFU CDKN2B (11736163_a_at) / Fold change /veh CDKN2B (11736163_a_at) / RFU PRF1 (11729649_at) / Fold change /veh PRF1 (11729649_at) / RFU, ZNF638 /// ZNF638-IT1 / Fold change vs veh, ZNF638 /// ZNF638-IT1 / RFU, PANK3 / Fold change vs veh, PANK3 / RFU, SH3YL1 / Fold change vs veh, SH3YL1 / RFU, ZEB2 / Fold change vs veh, ZEB2 / RFU, NRIP1 / Fold change vs veh, NRIP1 / RFU, PTTG1IP / Fold change vs veh, PTTG1IP / RFU, CAPN2 / Fold change vs veh, CAPN2 / RFU, MED14 / Fold change vs veh, MED14 / RFU, SNORA58 / Fold change vs veh, SNORA58 / RFU, C1orf63 / Fold change vs veh, C1orf63 / RFU, LRRFIP1 / Fold change vs veh, LRRFIP1 / RFU, NDUFAF7 / Fold change vs veh, NDUFAF7 / RFU, SLC12A2 / Fold change vs veh, SLC12A2 / RFU, IBTK / Fold change vs veh, IBTK / RFU, ESF1 / Fold change vs veh, ESF1 / Fold change vs veh, TMEM50B / RFU, TAOK1 / Fold change vs veh, TAOK1 / RFU, ACBD3 / Fold change vs veh, ACBD3 / RFU, TMA16 / Fold change vs veh, TMA16 / RFU, RWDD3 / Fold change vs veh, RWDD3 / RFU, BCAT1 / Fold change vs veh, BCAT1 / RFU, EDEM3 / Fold change vs veh, EDEM3 / RFU, TMEM33 / Fold change vs veh, TMEM33 / RFU, WDR75 / Fold change vs veh, WDR75 / RFU, AHCTF1 / Fold change vs veh, AHCTF1 / RFU, TFRC / Fold change vs veh, TFRC / RFU, ZDHHC17 / Fold change vs veh, ZDHHC17 / RFU, NOM1 / Fold change vs veh, NOM1 / RFU, ARL8B / Fold change vs veh, ARL8B / RFU, ZBTB11 / Fold change vs veh, ZBTB11 / RFU, TAMM41 / Fold change vs veh, TAMM41 / RFU, KIAA1704 /// LOC100996395 / Fold change vs veh, KIAA1704 /// LOC100996395 / RFU, ING1 / Fold change vs veh, ING1 / RFU, TRMT61B / Fold change vs veh, TRMT61B / RFU, FUBP3 / Fold change vs veh, FUBP3 / RFU, TP53 / Fold change vs veh, TP53 / RFU, TNKS2 / Fold change vs veh, TNKS2 / RFU, ZFP14 / Fold change vs veh, ZFP14 / RFU, ACTR2 / Fold change vs veh, ACTR2 / RFU, PPP3R1 / Fold change vs veh, PPP3R1 / RFU, PIK3R1 / Fold change vs veh, PIK3R1 / RFU, HNRNPA1 / Fold change vs veh, HNRNPA1 / RFU, RNF170 / Fold change vs veh, RNF170 / RFU, ZNF28 / Fold change vs veh, ZNF28 / RFU, RNGTT / Fold change vs veh, RNGTT / RFU, OGT / Fold change vs veh, OGT / RFU, BRD1 / Fold change vs veh, BRD1 / RFU, MARS / Fold change vs veh, MARS / RFU, ZNF655 / Fold change vs veh, ZNF655 / RFU, FAHD1 / Fold change vs veh, FAHD1 / RFU, BDP1 / Fold change vs veh, BDP1 / RFU, LRRCC1 / Fold change vs veh, LRRCC1 / RFU, ARID1A / Fold change vs veh, ARID1A / RFU, ZNF146 / Fold change vs veh, ZNF146 / RFU, ZNF330 / Fold change vs veh, ZNF330 / RFU, GPN3 / Fold change vs veh, GPN3 / RFU, C9orf123 / Fold change vs veh, C9orf123 / RFU, N4BP2L2 / Fold change vs veh, N4BP2L2 / RFU, ARFIP1 / Fold change vs veh, ARFIP1 / RFU, FAM179B / Fold change vs veh, FAM179B / RFU, BCL10 / Fold change vs veh, BCL10 / RFU, UHRF1BP1L / Fold change vs veh, UHRF1BP1L / RFU, BET1 / Fold change vs veh, BET1 / RFU, CNOT2 / Fold change vs veh, CNOT2 / RFU, ZNF268 / Fold change vs veh, ZNF268 / Fold change vs veh, ZNF507 / RFU, DGCR2 / Fold change vs veh, DGCR2 / RFU, WDSUB1 / Fold change vs veh, WDSUB1 / Fold change vs veh, HSP90B1 /// MIR3652 / RFU, ADSS / Fold change vs veh, ADSS / RFU, GK / Fold change vs veh, GK / RFU, ZNF148 / Fold change vs veh, ZNF148 / RFU, TAF9 / Fold change vs veh, TAF9 / RFU, SLC1A5 / Fold change vs veh, SLC1A5 / RFU, SLMO2 / Fold change vs veh, SLMO2 / RFU, ABCC4 / Fold change vs veh, ABCC4 / RFU, LOC101060439 /// RAP1B / Fold change vs veh, LOC101060439 /// RAP1B / RFU, RFX7 / Fold change vs veh, RFX7 / RFU, GTPBP10 / Fold change vs veh, GTPBP10 / RFU, CNEP1R1 / Fold change vs veh, CNEP1R1 / RFU, BIVM-ERCC5 /// ERCC5 / Fold change vs veh, BIVM-ERCC5 /// ERCC5 / RFU, ILF3 / Fold change vs veh, ILF3 / RFU 11762660_at / Fold change /veh 11762660_at / RFU VCAN (11757783_s_at) / Fold change /veh VCAN (11757783_s_at) / RFU DDX43 (11728927_at) / Fold change /veh DDX43 (11728927_at) / RFU KRT8 (11758188_x_at) / Fold change /veh KRT8 (11758188_x_at) / RFU NKD1 (11759106_at) / Fold change /veh NKD1 (11759106_at) / RFU SRD5A1 (11742802_a_at) / Fold change /veh SRD5A1 (11742802_a_at) / RFU TPSAB1 /// TPSB2 (11721975_s_at) / Fold change /veh TPSAB1 /// TPSB2 (11721975_s_at) / RFU GSTM3 (11746129_a_at) / Fold change /veh GSTM3 (11746129_a_at) / RFU IL23R (11737362_x_at) / Fold change /veh IL23R (11737362_x_at) / RFU TMEM51 (11727254_a_at) / Fold change /veh TMEM51 (11727254_a_at) / RFU PIWIL2 (11732686_x_at) / Fold change /veh PIWIL2 (11732686_x_at) / RFU ORM1 (11744905_x_at) / Fold change /veh ORM1 (11744905_x_at) / RFU CCDC152 (11743942_at) / Fold change /veh CCDC152 (11743942_at) / RFU ECM1 (11717891_a_at) / Fold change /veh ECM1 (11717891_a_at) / RFU IL23R (11748794_a_at) / Fold change /veh IL23R (11748794_a_at) / RFU TNFAIP8L3 (11732012_x_at) / Fold change /veh TNFAIP8L3 (11732012_x_at) / RFU MBOAT4 (11741988_at) / Fold change /veh MBOAT4 (11741988_at) / RFU 11764193_at / Fold change /veh 11764193_at / RFU TMEM53 (11763286_at) / Fold change /veh TMEM53 (11763286_at) / RFU MAGEB2 (11727129_at) / Fold change /veh MAGEB2 (11727129_at) / RFU TMEM200A (11744735_a_at) / Fold change /veh TMEM200A (11744735_a_at) / RFU CCDC152 (11751479_a_at) / Fold change /veh CCDC152 (11751479_a_at) / RFU FAM211A (11726209_a_at) / Fold change /veh FAM211A (11726209_a_at) / RFU RGS16 (11746705_a_at) / Fold change /veh RGS16 (11746705_a_at) / RFU VCAN (11755009_s_at) / Fold change /veh VCAN (11755009_s_at) / RFU RHOB (11743442_s_at) / Fold change /veh RHOB (11743442_s_at) / RFU RGS16 (11720943_a_at) / Fold change /veh RGS16 (11720943_a_at) / RFU RGS16 (11720944_at) / Fold change /veh RGS16 (11720944_at) / RFU, VPS4B / Fold change vs veh, VPS4B / RFU, CREB1 / Fold change vs veh, CREB1 / RFU, DNAJC13 / Fold change vs veh, DNAJC13 / RFU, GNAQ / Fold change vs veh, GNAQ / RFU, CDK5R1 / Fold change vs veh, CDK5R1 / RFU, ZRANB3 / Fold change vs veh, ZRANB3 / RFU, CUL4A / Fold change vs veh, CUL4A / RFU, CCNY / Fold change vs veh, CCNY / RFU, UFL1 / Fold change vs veh, UFL1 / RFU, COG3 / Fold change vs veh, COG3 / RFU, DIAPH2 / Fold change vs veh, DIAPH2 / RFU, SKA2 / Fold change vs veh, SKA2 / RFU, AFF3 / Fold change vs veh, AFF3 / RFU, LMF1 / Fold change vs veh, LMF1 / RFU, IPO11 / Fold change vs veh, IPO11 / RFU, DFFB / Fold change vs veh, DFFB / RFU, FOXP1 / Fold change vs veh, FOXP1 / RFU, CARD8 / Fold change vs veh, CARD8 / RFU, STRN3 / Fold change vs veh, STRN3 / RFU, ADK / Fold change vs veh, ADK / RFU, RASSF2 / Fold change vs veh, RASSF2 / RFU, WIPF1 / Fold change vs veh, WIPF1 / RFU, LARP1B / Fold change vs veh, LARP1B / RFU, RASA1 / Fold change vs veh, RASA1 / RFU, RB1 / Fold change vs veh, RB1 / RFU, PPFIA1 / Fold change vs veh, PPFIA1 / RFU, MAT2A / Fold change vs veh, MAT2A / RFU, CCT5 / Fold change vs veh, CCT5 / RFU, WDR92 / Fold change vs veh, WDR92 / RFU, CUX1 / Fold change vs veh, CUX1 / RFU, TTC7A / Fold change vs veh, TTC7A / RFU, TMEM135 / Fold change vs veh, TMEM135 / RFU, DEPTOR / Fold change vs veh, DEPTOR / RFU, CPM / Fold change vs veh, CPM / RFU, DNAJB6 / Fold change vs veh, DNAJB6 / RFU, CACNA2D3 / Fold change vs veh, CACNA2D3 / RFU, DTX4 / Fold change vs veh, DTX4 / RFU, TFCP2 / Fold change vs veh, TFCP2 / RFU, GMCL1 /// GMCL1P1 / Fold change vs veh, GMCL1 /// GMCL1P1 / RFU, AEBP2 / Fold change vs veh, AEBP2 / RFU, SNHG1 /// SNORD22 /// SNORD25 /// SNORD26 /// SNORD27 /// SNORD28 /// SNORD29 /// SNORD31 / Fold change vs veh, SNHG1 /// SNORD22 /// SNORD25 /// SNORD26 /// SNORD27 /// SNORD28 /// SNORD29 /// SNORD31 / Fold change (Aza/veh), C12orf56 (ProbeSet 11735607_a_at) / Fold change (ACY-1035/veh), C12orf56 (ProbeSet 11735607_a_at) / Fold change (Aza/veh), FGFR1OP (ProbeSet 11751329_s_at) / Fold change (ACY-1035/veh), FGFR1OP (ProbeSet 11751329_s_at) / Fold change (Aza/veh), VPS36 (ProbeSet 11739960_a_at) / Fold change (ACY-1035/veh), VPS36 (ProbeSet 11739960_a_at) / RFU SYPL1 (11715823_x_at) / Fold change /veh SYPL1 (11715823_x_at) / RFU IGFBP7 (11715501_s_at) / Fold change /veh IGFBP7 (11715501_s_at) / RFU REEP3 (11722064_at) / Fold change /veh REEP3 (11722064_at) / RFU IGLL1 (11728026_x_at) / Fold change /veh IGLL1 (11728026_x_at): dose or concentration left out as unconfirmed
Details: MV-4-11 cells, 48 hours

Nc1ncn([C@@H]2O[C@H](CO)[C@@H](O)[C@H]2O)c(=O)n1 [azacitidine]
Fold change /veh CASKIN2 (11723855_a_at): 1.13
